For data set [1], the target named is T1, recombinant human tau 4R2N (Homo sapiens (Human), UniProt P10636). Briefly: Confirmatory Assay (CONFA), SDS-PAGE quantification of tau monomer and oligomers. Format: biochemical. To be noted: tau target 300 nM, 3 hours room temperature, compound 0.098 uM-50 uM. The procedure:
(§1) Bacterial recombinant human tau 4R2N (the largest isoform of tau in the central nervous system, 441 amino acids in length, Seq. ID 1) constructs with either 6X-His or StrepII N-terminal epitope tags were purified from bacterial lysate using denaturing conditions to prepare tau in its monomeric form.
CONFA Assay: Confirmatory Assay (CONFA) used as a secondary screen for confirming the mechanism of action of compounds identified as hits using the ALA assay. The assay is performed using a similar procedure as ALA except that it utilizes SDS-PAGE for visualization and quantification of tau monomer and aggregated species (dimer, trimer, tetramer, pentamer, etc.). Only a single construct of tau without epitope tags is necessary, but the assay can use the same target prepared for the ALA assay also.
For the CONFA assay, Tau target (300 nM) was prepared in buffer (Tris-HCl pH 7.4) and was incubated at room temperature for 3 hours with vehicle control (DMSO) and a dose range of a compound of the disclosure (0.098 uM-50 uM). Samples were mixed with an equal volume of 2×SDS sample buffer (4% SDS, 20% glycerol, 0.004% bromphenol blue, 125 mM Tris HCl, pH 7.0) to resolve tau monomer and disulfide-linked oligomers on 4-20% gradient polyacrylamide gels (Biorad) along with positive control (non-oligomerized tau target). The gels were stained with Oriole Fluorescent Gel Stain (BioRad) and imaged using the FluorChem R system (Protein Simple). AlphaView software (Protein Simple) was used for quantification of tau monomer and oligomers.

The target in data set [2] is T1, recombinant human tau 4R2N. Briefly: AlphaLisa Assay (ALA), primary screen for inhibition of tau oligomer formation. The data set is classed as biochemical. Conditions: tau target 300 nM, 4 hours room temperature, compound 0.098 uM-50 uM.
Source text: as §1
ALA Assay: AlphaLisa Assay (ALA) was used as a primary screen for identifying compounds that inhibit tau oligomer formation. It is a bead based assay that only gives signal when the beads are in close proximity to each other. When the tau monomer (target) is incubated it forms higher order aggregates (dimer, trimer, tetramer, etc) so that when the donor and acceptor beads bind to the epitope tags of tau they are in close proximity and generate signal.
Tau target (equal mixture of each construct at 300 nM) was prepared in buffer (Tris-HCl pH 7.4) and was incubated in 96-well plates at room temperature for 4 hours with vehicle control (DMSO) and a dose range of a compound of the disclosure (0.098 uM-50 uM). AlphaLisa acceptor heads & donor beads with ligands to the epitope tags (Perkin Elmer) were diluted (final 20 ug/mL per bead) in bead buffer (25 mM HEPES pH 7.4, 100 mM NaCl, 0.1% Tween-20), added to the wells and incubated 1 hour at room temperature. The positive control (non-incubated target) & blank (no tau) were prepared and mixed with beads in bead buffer and the plate was read immediately using the EnVision plate reader (Perkin Elmer).

Data set [3] deals with insoluble tau aggregates in the brains of htau mice. Briefly: htau mouse study, insoluble tau in cortex (mAb DA31). Format: in vivo. The procedure: (§2) Four groups of htau mice (n=25 per group) were treated from 2.5 to 6.5 months of age with 0, 10, 40 and 100 mg/kg of compound TO-0582 milled into feed. The study was performed independently and blinded. The primary endpoint of the study was reduction of insoluble tau aggregates in the brains of the mice with statistical significance. […] Methods for biochemical analyses of tau used in this study have been previously described (Acker C M et al. Sensitive quantitative assays for tau and phospho-tau in transgenic mouse models. Neurobiol Aging. 2013. 34:338). The results in FIG. 1 show in vivo efficacy of the compound in reducing tau pathology. Levels of insoluble tau in the cortices of htau mice treated with compound TO-0582 (example 21) were determined using the pan-tau monoclonal antibody (mAb) DA31. These values were normalized to total tau in the lysates of the cortex of each mouse. Error bars indicate standard error of the mean. The P values of comparisons of the groups treated with 10, 40 or 100 mg/kg TO-0582 to the control group (white bar, 0 mg/kg) are 0.0503 (horizontal hatch bar, 10 mg/kg), 0.0154 (diagonal hatch bar, 40 mg/kg) and 0.0488 (vertical hatch bar, 100 mg/kg). * indicates P value <0.05.

Data set [4] deals with htau mice. Briefly: htau mouse study, tolerability. Format: in vivo. Conditions: all doses (10, 40, 100 mg/kg in feed). The procedure:
as §2

Molecules are shown by their SMILES. Entries after “also recorded” stand apart in the source; their conditions may differ. Structures can show the parent of a compound that is named as a salt.

T1 sequence (P10636 other isoform, or with tags, fused parts or gaps): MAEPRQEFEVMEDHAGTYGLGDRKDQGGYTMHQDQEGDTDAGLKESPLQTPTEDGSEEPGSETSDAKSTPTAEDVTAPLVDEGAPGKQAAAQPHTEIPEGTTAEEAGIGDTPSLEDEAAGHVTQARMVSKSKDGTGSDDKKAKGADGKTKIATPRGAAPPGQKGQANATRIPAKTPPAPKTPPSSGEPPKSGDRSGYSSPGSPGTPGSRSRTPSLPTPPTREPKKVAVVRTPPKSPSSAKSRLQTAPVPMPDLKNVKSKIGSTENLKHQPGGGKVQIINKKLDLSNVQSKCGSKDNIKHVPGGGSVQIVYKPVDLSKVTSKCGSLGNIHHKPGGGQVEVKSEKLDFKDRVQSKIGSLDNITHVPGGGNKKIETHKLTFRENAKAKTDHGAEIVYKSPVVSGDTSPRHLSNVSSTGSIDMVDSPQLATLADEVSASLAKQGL

Regarding `O=c1c2ccccc2nc(-c2cccnc2)n1-c1ccc(Cl)c(O)c1` [Ex. 2, 3-(4-Chloro-3-hydroxyphenyl)-2-(pyridin-3-yl)quinazolin-4(3H)-one hydrochloride], the IC50 (usually the concentration that gives 50% inhibition) in data set [1] worked out at 31.9 µM; in data set [2], 5.78 µM.
The corresponding values for `O=c1c2ccccc2nc(-c2cccnc2)n1CCCCO` [Ex. 3, 3-(4-Hydroxybutyl)-2-(pyridin-3-yl)quinazolin-4(3H)-one hydrochloride] are 8.94 µM and 9.93 µM.
In the case of `O=c1c2ccccc2nc(-c2cccnc2)n1-c1cccc(OCc2ccccc2)c1` [Ex. 4, 3-(3-(Benzyloxy)phenyl)-2-(pyridin-3-yl)quinazolin-4(3H)-one hydrochloride], the IC50 in data set [1] was found to be 3.19 µM; in data set [2] it was 7.8 µM.
With `O=c1[nH]c(-c2cccnc2)nc2cnccc12` [Ex. 6, 2-(Pyridin-3-yl)pyrido[3,4-d]pyrimidin-4(3H)-one dihydrochloride], the IC50 in data set [1] is 59.2 µM.
As to `CN1CC(C(=O)Nc2ccc(-c3nc4ccccc4c(=O)n3-c3cccnc3)cc2)C1` [Ex. 7, N-(4-(3,4-Dihydro-4-oxo-3-(pyridin-3-yl)quinazolin-2-yl)phenyl)-1-methylazetidine-3-carboxamide dihydrochloride], the IC50 turned out to be 12.1 µM in data set [1] and 9.6 µM in data set [2].
Turning to `CN1CC(C(=O)Nc2ccc(-c3nc4ccsc4c(=O)[nH]3)cc2)C1` [Ex. 9, N-(4-(3,4-Dihydro-4-oxothieno[3,2-d]pyrimidin-2-yl)phenyl)-1-methyl azetidine-3-carboxamide hydrochloride], the IC50 in data set [1] is 62.4 µM; in data set [2], 6.89 µM.
As to `O=c1c2sccc2nc(-c2cccnc2)n1-c1cccnc1` [Ex. 10, 2,3-Di(pyridin-3-yl)thieno[3,2-d]pyrimidin-4(3H)-one], in data set [2], the IC50 came to 26.3 µM.
Turning to `Cc1ccc(-n2c(-c3cccnc3)nc3ccsc3c2=O)cc1O` [Ex. 11, 3-(3-Hydroxy-4-methylphenyl)-2-(pyridin-3-yl)thieno[3,2-d]pyrimidin-4(3H)-one], the IC50 was determined as 57 µM in data set [1] and 17.1 µM in data set [2].
Take `COc1ccc(-n2c(-c3ccc(NC(C)=O)cc3)nc3ccsc3c2=O)cn1` [Ex. 13, N-(4-(3,4-Dihydro-3-(6-methoxypyridin-3-yl)-4-oxothieno[3,2-d]pyrimidin-2-yl)phenyl)acetamide]: in data set [2], the IC50 came out at 13.6 µM.
As to `COc1ccc(-n2c(-c3cccnc3)nc3ccsc3c2=O)cn1` [Ex. 14, 3-(6-Methoxypyridin-3-yl)-2-(pyridin-3-yl)thieno[3,2-d]pyrimidin-4(3H)-one dihydrochloride], the IC50 in data set [1] is 22.3 µM; in data set [2], 6.25 µM.
As for `O=c1[nH]c(-c2cccnc2)nc2ccsc12` [Ex. 15, 2-(pyridin-3-yl)thieno[3,2-d]pyrimidin-4(3H)-one], the values for the IC50 in data set [1] and in data set [2] were 7.6 µM and 3.72 µM, respectively.
`CCc1ccc(-n2c(-c3ccc(NC(C)=O)cc3)nc3ccsc3c2=O)cc1O` [Ex. 16, N-(4-(3-(4-ethyl-3-hydroxyphenyl)-4-oxo-3,4-dihydrothieno[3,2-d]pyrimidin-2-yl)phenyl)acetamide]: the IC50 is 1.7 µM in data set [1] and 4.53 µM in data set [2].
`CCc1ccc(-n2c(-c3cccnc3)nc3ccccc3c2=O)cc1F` [Ex. 17, 3-(3-Fluoro-4-ethylphenyl)-2-(pyridine-3-yl)quinazolin-4(3H)-one]: the IC50 in data set [2] came out at 24.1 µM.
As to `CCc1ccc(-n2c(-c3cccnc3)nc3ccccc3c2=O)cc1Br` [Ex. 18, 3-(3-Bromo-4-ethylphenyl)-2-(pyridine-3-yl)quinazolin-4(3H)-one], in data set [2], the IC50 was found to be 4.5 µM.
For the compound `CCc1ccc2cc(-n3c(-c4cccnc4)nc4ccccc4c3=O)ccc2c1` [Ex. 19, 3-(2-Ethylnaphthalen-6-yl)-2-(pyridine-3-yl)quinazolin-4(3H)-one], the IC50 in data set [2] was found to be 8.05 µM.
Turning to `Cc1ccc(-n2c(-c3cccnc3)nc3ccccc3c2=O)cc1O` [Ex. 20, 3-(4-Methyl-3-hydroxyphenyl)-2-(pyridin-3-yl)quinazolin-4(3H)-one hydrochloride], the IC50 in data set [1] is 4.18 µM; in data set [2] it was 1.9 µM.
Regarding `O=c1c2ccccc2nc(-c2cccnc2)n1-c1cccc(O)c1` [Ex. 21, 3-(3-Hydroxyphenyl)-2-(pyridin-3-yl)quinazolin-4(3H)-one hydrochloride], in data set [3] (40 mg/kg and 100 mg/kg doses, male htau mice), the “reduction of insoluble tau, statistical significance” value is on record as “achieved with statistical significance”. Also, the “reduction of insoluble tau aggregates in the brains” value in data set [3] (htau mice, 10, 40 and 100 mg/kg milled into feed, 2.5 to 6.5 months of age, listed as TO-0582, hydrochloride) is given as “reduced insoluble tau at all doses; also recorded: achieved with statistical significance”. Moreover, in data set [4], the “tolerability over the course of the study” value was “well tolerated” and the “toxic effects on weight, behavior or morbidity” value is recorded as “did not cause toxic effects”. In data set [1], the IC50 came out at 5.67 µM. For the same compound, in data set [2], the IC50 stood at 5.14 µM.
